# Laboratory results as given in US11542210B2, “Method of producing a monoammonium phosphate containing fertilizer solution” (Liquigro Holdings (Proprietary) Limited, priority 2016, dated 2023).
# Tested on: Maize
# Experiment: Crop application - vegetative growth (maize): spray application, damage to the plants
# Format: in vivo
# Excerpt: When using MAP technical, it is only possible to spray a maximum of 1 kg P per ha before damage is inflicted on the plants.
compound,measurement,value
"N.O=P(O)(O)O [MAP technical, monoammonium phosphate (technical)]",maximum that can be sprayed before damage is inflicted on the plants,≤ 1 kg P per ha
